Measured values: patent publication US9096624B2 (OSI Pharmaceuticals, LLC, priority 2009, dated 2015)
Where a name gives a salt, the structure may show the parent alone.

Target: FAK (Homo sapiens, UniProt Q05397)
Experiment: biochemical

Chain of FAK (Q05397 whole entry): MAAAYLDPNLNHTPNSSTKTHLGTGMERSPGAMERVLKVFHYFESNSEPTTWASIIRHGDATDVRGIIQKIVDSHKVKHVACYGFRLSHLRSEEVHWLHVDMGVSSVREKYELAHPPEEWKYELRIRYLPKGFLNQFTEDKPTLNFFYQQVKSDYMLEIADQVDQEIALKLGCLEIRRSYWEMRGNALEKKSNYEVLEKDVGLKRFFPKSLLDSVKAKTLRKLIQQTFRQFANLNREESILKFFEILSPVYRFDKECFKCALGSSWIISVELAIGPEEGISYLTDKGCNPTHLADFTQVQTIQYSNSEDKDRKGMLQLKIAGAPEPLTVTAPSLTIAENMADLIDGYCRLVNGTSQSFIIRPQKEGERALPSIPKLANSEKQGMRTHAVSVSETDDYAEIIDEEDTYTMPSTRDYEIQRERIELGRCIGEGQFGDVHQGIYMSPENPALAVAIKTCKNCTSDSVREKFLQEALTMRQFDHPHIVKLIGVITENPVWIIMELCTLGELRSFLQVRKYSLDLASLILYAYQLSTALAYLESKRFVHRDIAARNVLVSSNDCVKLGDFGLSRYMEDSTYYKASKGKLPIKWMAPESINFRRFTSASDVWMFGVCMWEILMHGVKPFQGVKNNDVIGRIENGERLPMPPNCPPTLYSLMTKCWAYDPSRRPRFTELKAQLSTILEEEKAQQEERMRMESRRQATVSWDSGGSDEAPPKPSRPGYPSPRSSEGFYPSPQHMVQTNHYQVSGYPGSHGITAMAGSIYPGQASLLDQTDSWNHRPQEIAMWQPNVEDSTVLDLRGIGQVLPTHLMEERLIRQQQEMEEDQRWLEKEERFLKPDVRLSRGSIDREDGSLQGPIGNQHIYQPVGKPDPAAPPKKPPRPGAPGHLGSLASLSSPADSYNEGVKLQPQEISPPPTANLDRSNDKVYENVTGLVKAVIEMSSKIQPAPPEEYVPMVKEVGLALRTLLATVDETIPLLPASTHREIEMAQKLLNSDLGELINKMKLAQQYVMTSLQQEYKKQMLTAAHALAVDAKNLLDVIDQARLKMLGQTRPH

| SMILES | IC50 |
| --- | --- |
| CCOP(=O)(Cc1ccc(Nc2ncc(C(F)(F)F)c(Nc3cccc4c3C(=O)N(C)C4C)n2)cc1)OCC (stereo not shown) [Example 157, Diethyl [4-({4-[(1,2-dimethyl-3-oxo-2,3-dihydro-1H-isoindol-4-yl)amino]-5-(trifluoromethyl)pyrimidin-2-yl}amino)benzyl]phosphonate] | < 1000 nM |
| CCOC(c1ccc(Nc2ncc(C(F)(F)F)c(Nc3ccccc3C(=O)NC)n2)cc1)P(=O)(OCC)OCC (stereo not shown) [Example 159, Diethyl [ethoxy(4-{[4-{[2-(methylcarbamoyl)phenyl]amino}-5-(trifluoromethyl)pyrimidin-2-yl]amino}phenyl)methyl]phosphonate] | < 1000 nM |
| CCOP(=O)(OCC)C(OC)c1ccc(Nc2ncc(C(F)(F)F)c(Nc3ccccc3C(=O)NC)n2)cc1 (stereo not shown) [Example 160, Diethyl [methoxy(4-{[4-{[2-(methylcarbamoyl)phenyl]amino}-5-(trifluoromethyl)pyrimidin-2-yl]amino}phenyl)methyl]phosphonate] | < 1000 nM |
| CCOP(=O)(Cc1ccc(Nc2ncc(C(F)(F)F)c(Nc3ccc(C#N)c4c3C(=O)N(C)C4)n2)cc1)OCC [Example 161, Diethyl [4-({4-[(7-cyano-2-methyl-3-oxo-2,3-dihydro-1H-isoindol-4-yl)amino]-5-(trifluoromethyl)pyrimidin-2-yl}amino)benzyl]phosphonate] | < 1000 nM |
| CCOP(=O)(Cc1ccc(Nc2ncc(C(F)(F)F)c(Nc3ccc(C#N)c4c3C(=O)N(C)C4)n2)c(OC)c1)OCC [Example 162, Diethyl [4-({4-[(7-cyano-2-methyl-3-oxo-2,3-dihydro-1H-isoindol-4-yl)amino]-5-(trifluoromethyl)pyrimidin-2-yl}amino)-3-methoxybenzyl]phosphonate] | < 1000 nM |
| CCOP(=O)(Cc1ccc(Nc2ncc(C(F)(F)F)c(Nc3ccc(-c4cnn(CCOC)c4)cc3C(=O)NC)n2)cc1)OCC [Example 163, Diethyl (4-{[4-({4-[1-(2-methoxyethyl)-1H-pyrazol-4-yl]-2-(methylcarbamoyl)phenyl}amino)-5-(trifluoromethyl)pyrimidin-2-yl]amino}benzyl) phosphonate] | < 1000 nM |
| CCOP(=O)(Cc1ccc(Nc2ncc(C(F)(F)F)c(Nc3ccc([C@H]4CC[C@H](OCC)CC4)c4c3C(=O)N(C)C4)n2)c(OC)c1)OCC [Example 170, Diethyl (4-{[4-{[7-(trans-4-ethoxycyclohexyl)-2-methyl-3-oxo-2,3-dihydro-1H-isoindol-4-yl]amino}-5-(trifluoromethyl)pyrimidin-2-yl]amino}-3-methoxybenzyl)phosphonate] | < 1000 nM |
| CCOP(=O)(Cc1ccc(Nc2ncc(C(F)(F)F)c(Nc3ccc([C@H]4CC[C@H](O)CC4)cc3C(=O)N(C)C)n2)cc1)OCC [Example 173, Diethyl (4-{[4-{[2-(dimethylcarbamoyl)-4-(trans-4-hydroxycyclohexyl)phenyl]amino}-5-(trifluoromethyl)pyrimidin-2-yl]amino}benzyl)phosphonate] | < 1000 nM |
| CCOP(=O)(Cc1ccc(Nc2ncc(C(F)(F)F)c(Nc3ccccc3C(=O)N3CCN(C)CC3)n2)cc1)OCC [Example 177, Diethyl (4-{[4-({2-[(4-methylpiperazin-1-yl)carbonyl]phenyl}amino)-5-(trifluoromethyl)pyrimidin-2-yl]amino}benzyl)phosphonate] | < 1000 nM |
| CCOP(=O)(Cc1ccc(Nc2ncc(C(F)(F)F)c(Nc3ccccc3C(=O)N3CCCC3)n2)c(OC)c1)OCC [Example 178, Diethyl (3-methoxy-4-{[4-{[2-(pyrrolidin-1-ylcarbonyl)phenyl]amino}-5-(trifluoromethyl)pyrimidin-2-yl]amino}benzyl)phosphonate] | < 1000 nM |
| CCOP(=O)(Cc1ccc(Nc2ncc(C(F)(F)F)c(Nc3ccccc3C(=O)N3CCN(C)CC3)n2)c(OC)c1)OCC [Example 179, Diethyl (3-methoxy-4-{[4-({2-[(4-methylpiperazin-1-yl)carbonyl]phenyl}amino)-5-(trifluoromethyl)pyrimidin-2-yl]amino}benzyl)phosphonate] | < 1000 nM |
| CCOP(=O)(Cc1ccc(Nc2ncc(C(F)(F)F)c(Nc3ccc(-c4cnn(CCN(CC)CC)c4)cc3C(=O)NC)n2)cc1)OCC [Example 180, Diethyl (4-{[4-{[4-{1-[2-(diethylamino)ethyl]-1H-pyrazol-4-yl}-2-(methylcarbamoyl)phenyl]amino}-5-(trifluoromethyl)pyrimidin-2-yl]amino}benzyl)phosphonate] | < 1000 nM |
| CCOP(=O)(Cc1ccc(Nc2ncc(C(F)(F)F)c(Nc3ccc(-c4nn[nH]n4)c4c3C(=O)N(C)C4)n2)cc1)OCC [Example 181, Diethyl (4-{[4-{[2-methyl-3-oxo-7-(2H-tetrazol-5-yl)-2,3-dihydro-1H-isoindol-4-yl]amino}-5-(trifluoromethyl)pyrimidin-2-yl]amino}benzyl)phosphonate] | < 1000 nM |
| CCOP(=O)(Cc1ccc(Nc2ncc(C(F)(F)F)c(Nc3cccc4c3C(=O)N(O)C4)n2)c(OC)c1)OCC [Example 186, Diethyl [4-({4-[(2-hydroxy-3-oxo-2,3-dihydro-1H-isoindol-4-yl)amino]-5-(trifluoromethyl)pyrimidin-2-yl}amino)-3-methoxybenzyl]phosphonate trifluoroacetate] | < 1000 nM |
| CCOP(=O)(Cc1ccc(Nc2ncc(C(F)(F)F)c(Nc3cccc4c3C(=O)N(OC)C4)n2)c(OC)c1)OCC [Example 187, Diethyl [3-methoxy-4-({4-[(2-methoxy-3-oxo-2,3-dihydro-1H-isoindol-4-yl)amino]-5-(trifluoromethyl)pyrimidin-2-yl}amino)benzyl]phosphonate trifluoroacetate] | < 1000 nM |
| CCOP(C)(=O)Cc1ccc(Nc2ncc(C(F)(F)F)c(Nc3ccc([C@H]4CC[C@@](C)(O)CC4)c4c3C(=O)N(C)C4)n2)c(OC)c1 (stereo partly drawn) [Example 200, Ethyl (4-{[4-{[7-(cis-4-hydroxy-4-methylcyclohexyl)-2-methyl-3-oxo-2,3-dihydro-1H-isoindol-4-yl]amino}-5-(trifluoromethyl)pyrimidin-2-yl]amino}-3-methoxybenzyl)methylphosphinate] | < 1000 nM |
| CCOP(=O)(Cc1ccc(Nc2ncc(C(F)(F)F)c(Nc3ccc(OC)c4c3C(=O)N(C)C4)n2)cc1)OCC [Example 205, Diethyl [4-({4-[(7-methoxy-2-methyl-3-oxo-2,3-dihydro-1H-isoindol-4-yl)amino]-5-(trifluoromethyl)pyrimidin-2-yl}amino)benzyl]phosphonate] | < 1000 nM |
| CCOc1ccc(Nc2nc(Nc3ccc(CP(=O)(OCC)OCC)cc3OC)ncc2C(F)(F)F)c2c1CN(C)C2=O [Example 210, Diethyl [4-({4-[(7-ethoxy-2-methyl-3-oxo-2,3-dihydro-1H-isoindol-4-yl)amino]-5-(trifluoromethyl)pyrimidin-2-yl}amino)-3-methoxybenzyl]phosphonate] | < 1000 nM |
| CCOP(=O)(Cc1ccc(Nc2ncc(C(F)(F)F)c(Nc3ccc(OC(C)C)c4c3C(=O)N(C)C4)n2)c(OC)c1)OCC [Example 211, Diethyl (3-methoxy-4-{[4-{[2-methyl-3-oxo-7-(propan-2-yloxy)-2,3-dihydro-1H-isoindol-4-yl]amino}-5-(trifluoromethyl)pyrimidin-2-yl]amino}benzyl)phosphonate] | < 1000 nM |
